Consider two compounds from US11535599B2, “Benzisoxazole derivative” (Sumitomo Pharma Co., Ltd., priority 2020, dated 2022).

Test [1] has as its system reserpine-induced Parkinson's disease model mouse. The test is described as follows: Potentiating effect of levodopa-induced hyperactivity in reserpine-induced Parkinson's disease model mouse. The format is in vivo. The following applies: Examples 12.5 or 25 mg/kg oral; rasagiline 3 or 10 mg/kg; with levodopa 200 mg/kg i.p. On the procedure:
Dopamine-depleted mice due to reserpine treatment are model mice of akinesia symptoms in Parkinson's disease, said symptoms are relieved with levodopa (L-DOPA). The effect of the present compounds for potentiating the levodopa's effect was tested.
In the present test, male Crl: CD1 (ICR) mice (CHARLES RIVER LABORATORIES JAPAN, INC.) were used. 20-24 hours before starting the movement measurement, reserpine (3 mg/kg) was intraperitoneally administered to the mouse. One hour before starting the movement measurement, the present compound (12-.5 mg/kg or 25 mg/kg of. Examples 1, 2, 3, 4, and 5) was orally administered to the mouse. Shortly before starting the movement measurement, levodopa (200 mg/kg) with benserazide whose amount was ¼ of levodopa in free form was intraperitoneally administered to the mouse. The movement measurement was carried out for 90 minutes, and each total movement was compared.

In test [2] the test system is subthalamic nucleus neuron. Put plainly: Effect for inhibiting neuronal firing in mouse brain slice (patch-clamp). The format is cell-based. As to conditions: 500 μmol/L. The method, then: (§1) The action of the present compound for regulating the voluntary firing frequency in subthalamic nucleus neuron and cerebellar Purkinje cell was measured by patch-clamp method in mouse brain slice. […] As stimulus protocol, a current of +200 pA or +400 pA was added thereto for 400 milliseconds and the raised action potential was recorded. […] The stimulus-controlled and digitized action potential was recorded with Clampex software (Version 10.2) (all instruments are from Molecular Device Corporation, Union City, Calif., USA). […] In the measurement after adding the compound of Example 13, the action potential was recorded after the record solution containing the compound of Example 13 was perfused for more than 10 minutes. In the analyses, the percentage of the spike firing frequency (Hz) for the current stimulation after adding the compound of Example 13, per the spike firing frequency (Hz) for the current stimulation before adding the compound of Example 13, was calculated, which was defined as a change rate of spike firing frequency in each cell.
On the technique in general: In patch-clamp work, channel activity is measured electrically.

The test system of test [3] is cerebellar Purkinje cell. The description is as above. The format is cell-based. As to conditions: 500 μmol/L. On the procedure: as §1

With `CC(c1noc2ccccc12)S(N)(=O)=O` (stereo not drawn) [Example 1, 1-(Benzo[d]isoxazol-3-yl)ethane-1-sulfonamide], the “levodopa-induced hyperactivity (total movement, 90 minutes)” value in test [1] is recorded as “significantly-potentiating effect of levodopa-induced hyperactivity”.

For `C[C@H](c1noc2ccccc12)S(N)(=O)=O` [Example 13, (1R)-1-(1,2-benzoxazol-3-yl)ethane-1-sulfonamide], in test [2], the “spike firing frequency in subthalamic nucleus neuron” value is “significantly inhibited the spike firing frequency”. Moreover, the “spike firing frequency in cerebellar Purkinje cell” value in test [3] is “significantly inhibited the spike firing frequency”.
